From the supplement of paper PMC12317010
Structures can show the parent of a compound that is named as a salt.

Assay: collision cross section in nitrogen (drift tube, single-field); higher = larger gas-phase ion size
[1] = ion type: [M+H], ion source: APCI, ion mode: Positive
[2] = ion type: [M+H], ion source: ESI, ion mode: Positive
[3] = ion type: [M+], ion source: APCI, ion mode: Positive
[4] = ion type: [M+Na], ion source: ESI, ion mode: Positive
[5] = ion type: [M-H], ion source: ESI, ion mode: Negative
[6] = ion source: APCI, ion mode: Positive, ion type: [M]+ (permanent cation)
[7] = ion source: ESI, ion mode: Positive, ion type: [M]+ (permanent cation)
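Also: chemical standards at 10 µM analysed by drift tube IMS-QTOF MS in about 3.95 torr nitrogen, mean of duplicate injections differing ≤1%, mass error below 10 ppm.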

| SMILES | collision cross section in nitrogen [1] | collision cross section in nitrogen [2] | collision cross section in nitrogen [4] | collision cross section in nitrogen [5] | also measured |
| --- | --- | --- | --- | --- | --- |
| Nc1ccc(Oc2cccc(Oc3ccc(N)cc3)c2)cc1 [1,3-Phenylenedi(4-aminophenyl ether)] | 167.2 Å² | 168.2 Å² | – | – | collision cross section in nitrogen [3]: 177.7 Å² |
| Nc1ccc(C(=O)OCCCOC(=O)c2ccc(N)cc2)cc1 [1,3-Propanediyl bis(p-aminobenzoate)] | – | – | 188.2 Å² | 166.6 Å² | – |
| CC(C)Nc1ccc(NC(C)C)c2c1C(=O)c1ccccc1C2=O [1,4-Bis(N-isopropylamino)anthraquinone] | 179.1 Å² | 179.4 Å² | – | – | collision cross section in nitrogen [3]: 178.2 Å² |
| CCCCNc1ccc(NCCCC)c2c1C(=O)c1ccccc1C2=O [1,4-Bis(butylamino)anthracene-9,10-dione] | 192.4 Å² | 192.8 Å² | 207.7 Å² | – | collision cross section in nitrogen [3]: 190.2 Å² |
| O=C(O)C1CCC(C(=O)O)CC1 (stereo unspecified) [1,4-Cyclohexanedicarboxylic acid] | – | – | – | 136.1 Å² | – |
| Nc1ccc(N)c2c1C(=O)c1ccccc1C2=O [1,4-Diaminoanthraquinone] | 151.4 Å² | 151.5 Å² | – | 149.1 Å² | collision cross section in nitrogen [3]: 147.5 Å² |
| O=C1c2ccccc2C(=O)c2c(O)ccc(O)c21 [1,4-Dihydroxyanthracene-9,10-dione] | – | – | – | 148.9 Å² | – |
| NCCCN1CCN(CCCN)CC1 [1,4-Piperazinedipropanamine] | 150.3 Å² | 150.2 Å² | – | – | – |
| Nc1ccc2c(S(=O)(=O)O)cccc2c1S(=O)(=O)O [1,5-Naphthalenedisulfonic acid, 2-amino-, sodium salt (1:1)] | – | – | – | 159.4 Å² | – |
| O=S(=O)(O)c1cccc2c(S(=O)(=O)O)cccc12 [1,5-Naphthalenedisulfonic acid, disodium salt hydrate] | – | – | – | 156.3 Å² | – |
| C=CC(=O)OCCCCCCOC(=O)C=C [1,6-Hexanediol diacrylate] | – | – | 157.7 Å² | – | – |
| C=C(C)C(=O)OCCCCCCOC(=O)C(=C)C [1,6-Hexanediol dimethacrylate] | – | – | 167.3 Å² | – | – |
| Cn1c(=O)[nH]c2ncn(C)c2c1=O [1,7-Dimethylxanthine] | 134.2 Å² | – | – | 136.8 Å² | – |
| C=C(C)C(=O)OCCCCCCCCCCOC(=O)C(=C)C [1,10-Decanediol dimethacrylate] | – | – | 184.9 Å² | – | – |
| c1cnc2c(c1)ccc1cccnc12 [1,10-Phenanthroline hydrochloride hydrate] | 131.8 Å² | 131.6 Å² | 145.7 Å² | – | – |
| c1cnc2c(c1)ccc1cccnc12 [1,10-Phenanthroline] | 131.3 Å² | 132.4 Å² | 146 Å² | – | – |
| Oc1ccccc1O [1,2-Benzenediol] | – | – | – | 116.1 Å² | – |
| CC(=O)c1sc(C)nc1C [1-(2,4-Dimethyl-1,3-thiazol-5-yl)ethanone] | 129.2 Å² | – | – | – | – |
| O=C1Cc2ccccc2N1c1c(Cl)cccc1Cl [1-(2,6-Dichlorophenyl)-2-indolinone] | 153.5 Å² | – | – | – | – |
| CC(=O)c1ccc(O)cc1Br [1-(2-Bromo-4-hydroxyphenyl)ethanone] | – | – | – | 130.1 Å² | – |

| SMILES | collision cross section in nitrogen [1] | collision cross section in nitrogen [2] | collision cross section in nitrogen [4] | collision cross section in nitrogen [5] | also measured |
| --- | --- | --- | --- | --- | --- |
| CCC(=O)C=Cc1ccc(OC)cc1 [1-(4-Methoxyphenyl)-1-pentene-3-one] | 143.3 Å² | – | – | – | – |
| CNc1cccc2c1C(=O)c1ccccc1C2=O [1-(Methylamino)anthraquinone] | – | 151.6 Å² | – | – | – |
| Cc1ccccc1NC(=N)NC(=N)N [1-(o-Tolyl)biguanide] | 144.7 Å² | 144.7 Å² | 148.5 Å² | – | – |
| Cc1ccc2c(c1N)C(=O)c1ccccc1C2=O [1-Amino-2-methylanthraquinone] | 153.6 Å² | 153.2 Å² | – | 150.1 Å² | collision cross section in nitrogen [3]: 147.6 Å² |
| CC=Cc1ccc(OCc2ccccc2)c(OC)c1 [1-Benzyloxy-2-methoxy-4-(1-propenyl)benzene] | – | – | 172.2 Å² | – | – |
| c1ccc(C[n+]2cccc3ccccc32)cc1 [1-Benzylquinolinium chloride] | – | – | – | – | collision cross section in nitrogen [6]: 147.6 Å²; collision cross section in nitrogen [7]: 148 Å² |
| CCCC[N+]1(C)CCCC1 [1-Butyl-1-methylpyrrolidinium chloride] | – | – | – | – | collision cross section in nitrogen [6]: 131.2 Å²; collision cross section in nitrogen [7]: 132.4 Å² |
| CCCCn1cc[n+](C)c1 [1-Butyl-3-methylimidazolium chloride] | – | – | – | – | collision cross section in nitrogen [6]: 129 Å²; collision cross section in nitrogen [7]: 128.9 Å² |
| FC(F)(F)c1ccc(Cl)cc1 [1-Chloro-4-(trifluoromethyl)benzene] | – | 142.6 Å² | – | – | – |
| O=C1CCCN1C1CCCCC1 [1-Cyclohexylpyrrolidin-2-one] | 139.2 Å² | 140.3 Å² | 157.7 Å² | – | – |
| CCCCCCCCCCCCN [1-Dodecanamine] | – | 164 Å² | – | – | – |
| CCCCCCCCCCCCN1CCCC1=O [1-Dodecyl-2-pyrrolidinone] | – | 176.3 Å² | 176.6 Å² | – | – |
| CCN1CCCC1=O [1-Ethyl-2-pyrrolidinone] | 121.7 Å² | – | – | – | – |
| On1nnc2ccccc21 [1-Hydroxybenzotriazole] | 124.9 Å² | 125.9 Å² | – | 122.6 Å² | – |
| Oc1ccc2ccc3cccc4ccc1c2c34 [1-Hydroxypyrene] | – | – | – | 146.2 Å² | collision cross section in nitrogen [3]: 141.9 Å² |
| Cn1c(=S)[nH]c2ccccc21 [1-Methyl-1,3-dihydro-2H-benzimidazole-2-thione] | 130.7 Å² | 130.9 Å² | – | 131.4 Å² | collision cross section in nitrogen [3]: 127.9 Å² |
| CNC(=N[N+](=O)[O-])NCC1CCOC1 (stereo unspecified) [1-Methyl-2-nitro-3-((tetrahydrofuran-3-yl)methyl)guanidine] | – | – | 150.6 Å² | 148.7 Å² | – |
| Cn1cc(-c2ccccc2)c(=O)c(-c2cccc(C(F)(F)F)c2)c1 [1-Methyl-3-phenyl-5-(3-(trifluoromethyl)phenyl)-4-pyridone] | 179.6 Å² | 179.8 Å² | 187.5 Å² | 178.9 Å² | – |
| CCCCCCCCCCCC(=O)OCC(O)CO (stereo unspecified) [1-Monolaurin] | – | – | 176.3 Å² | – | – |
| Nc1cccc2ccccc12 [1-Naphthylamine] | – | 127.6 Å² | – | – | collision cross section in nitrogen [3]: 125 Å² |

| SMILES | collision cross section in nitrogen [1] | collision cross section in nitrogen [2] | collision cross section in nitrogen [4] | collision cross section in nitrogen [5] | also measured |
| --- | --- | --- | --- | --- | --- |
| CCCCCCCCN1CCCC1=O [1-Octyl-2-pyrrolidone] | 158.6 Å² | 158.5 Å² | – | – | – |
| O=C1C=CC(=O)N1c1ccccc1 [1-Phenyl-1H-pyrrole-2,5-dione] | – | 135.3 Å² | – | – | – |
| CC1=NN(c2ccccc2)C(=O)C1 [1-Phenyl-3-methyl-5-pyrazolone] | – | 137.7 Å² | – | 137.8 Å² | – |
| OCCN1CCNCC1 [1-Piperazineethanol] | 124.7 Å² | 125.6 Å² | – | – | – |
| CC(=O)NCCCS(=O)(=O)O [1-Propanesulfonic acid, 3-(acetylamino)-, calcium salt (2:1)] | – | – | – | 134.9 Å² | – |
| CC(O)CN(CCCN(C)C)CCCN(C)C (stereo unspecified) [1-{Bis[3-(dimethylamino)propyl]amino}propan-2-ol] | 157.5 Å² | 158.1 Å² | 158.4 Å² | – | – |
| c1nc[nH]n1 [1H-1,2,4-Triazole] | – | – | – | 107.7 Å² | – |
| O=C1NC(=O)c2cccc3cccc1c23 [1H-Benzo[de]isoquinoline-1,3(2H)-dione] | – | – | – | 140.8 Å² | – |
| N=C1NC(=N)c2ccccc21 [1H-Isoindole-1,3(2H)-diimine] | – | 126.4 Å² | – | – | – |
| O=C1OC2(c3ccccc31)c1cc(Br)c(O)c(Br)c1Oc1c2cc(Br)c(O)c1Br [2',4',5',7'-Tetrabromofluorescein] | – | 204.7 Å² | – | 208.7 Å² | – |
| CCCC(=O)c1cc(O)c(O)cc1O [2',4',5'-Trihydroxybutyrophenone] | – | – | – | 141.3 Å² | – |
| O=c1cccc[nH]1 [2(1H)-Pyridinone] | – | 115.5 Å² | – | – | – |
| OCCN(CCO)CCN(CCO)CCO [2,2',2'',2'''-(1,2-Ethanediyldinitrilo)tetrakisethanol] | 149.2 Å² | 149.6 Å² | 151.1 Å² | – | – |
| O=C(c1ccc(O)cc1O)c1ccc(O)cc1O [2,2',4,4'-Tetrahydroxybenzophenone] | – | – | – | 152.3 Å² | – |
| Nc1cc(Cl)c(-c2cc(Cl)c(N)cc2Cl)cc1Cl [2,2',5,5'-Tetrachlorobenzidine] | – | – | – | 167.6 Å² | collision cross section in nitrogen [3]: 164.9 Å² |
| CC(C)(c1cc(Cl)c(O)c(Cl)c1)c1cc(Cl)c(O)c(Cl)c1 [2,2',6,6'-Tetrachlorobisphenol A] | – | – | – | 184.3 Å² | – |
| CCC(CO)(CO)COCC(CC)(CO)CO [2,2'-(Oxydimethanediyl)bis(2-ethylpropane-1,3-diol)] | – | – | 159.6 Å² | 158.6 Å² | – |
| CCCCCCCCCCCCCCN(CCO)CCO [2,2'-(Tetradecylimino)diethanol] | 193 Å² | 193.2 Å² | 187.4 Å² | – | – |
| c1ccc(-c2ccccn2)nc1 [2,2'-Bipyridine] | 126.4 Å² | 127 Å² | – | – | – |
